Data reported in publication PMC4492750, “The discovery of a selective and potent A2a agonist with extended lung retention” (Pharmacology Research & Perspectives, 2015).
“Also recorded” adds a separate entry of the source.

Tested on: heart
Experiment: Investigative rat toxicology study (heart histopathology)
Assay type: in vivo
Description: Rats were intratracheally administrated with compound 2 at 150µg/kg and terminated 24 hours after dosing. Rats in the repeated dose groups received compound 2 at dose level of 1 or 30µg/kg for 4 consecutive days and were terminated 24 hours after the last dose.
The animals were sacrificed by exsanguinations from the common carotid artery under isoflurane anesthesia. The external features were inspected and body weights recorded. The lung together with lower part of the trachea was excised from the thoracic cavity, weighed, and inflated with Formalin via the trachea. Other core organs (heart, kidneys, liver and spleen) were also macroscopically examined, weighed and fixed in buffered Formalin. The collected organs were trimmed and processed to paraffin blocks, sectioned (4µm) and stained with Hematoxylin Eosin (HE) for microscopic examination. Additional heart sections from each animal were collected for immunohistochemistry of Troponin T (see below) and for Masson's Trichrome stain.
The IHC was performed by using Ventanan Discovery XT automated slide processing system, according to the manufacturer’s instructions. In brief, after the antigen retrieval process (Std CC1), the Troponin T antibody (Thermo Scientific, MS-295-P1 diluted 1:50 in Antibody Diluent) was applied on the sections for 60 minutes, followed by incubation with rabbit monoclonal anti-mouse (Epitomics catalog no 3021-1) for 60 minutes and a polymer OmniMap-anti-rabbit HRP Multimer for 16 minutes. The reaction was visualized by using ChromoMap DAB kit. The slides were dehydrated in rising concentration of ethanol, cleared in xylene in an Automatic slide strainer (Sakura, US) and mounted manually with Mountex (00842, Histolab Products AB, Sweden).

With CCNC(=O)[C@H]1O[C@@H](n2cnc3c(NC(CC)CC)nc(NCCNC(=O)Nc4cc[n+](C)cc4)nc32)[C@H](O)[C@@H]1O [Compound 2, (2S,3S,4R,5R)-N-ethyl-5-[6-(1-ethylpropylamino)-2-[2-[(1-methylpyridin-1-ium-4-yl)carbamoylamino]ethylamino]purin-9-yl]-3,4-dihydroxy-tetrahydrofuran-2-carboxamide] the Heart changes (1 μg/kg i.t. for 4 days) was “No changes were observed”, the “Multifocal scar tissue (dense granulation) in heart” value (30 μg/kg i.t. for 4 days) was “three out of five; also recorded: multifocal dense scar tissue in the heart but no acute myocardial necrosis” and the “Dose level with histopathological heart lesions relative to efficacious dose in inflammatory rat lung model” value (30 μg/kg vs 10 μg/kg i.t.) was “threefold”. The “Heart weight relative to body weight” value (single dose of 150 μg/kg or repeated doses of 30 μg/kg) was “slightly increased” and the Multifocal myocardial necrosis (single i.t. dose 150 μg/kg, one day after dose) was “four of five; also recorded: caused multifocal myocardial necrosis”.
